Source: the NIST ThermoML archive (doi:10.1007/s10765-009-0568-4)
Several values for one entry are separate records, joined by “and”; a condition that tells them apart may be missing. Equal values may be shown once.

Assay: molar heat capacity at constant pressure
Conditions: 101.33 kPa, Crystal

O=C([O-])c1ccccc1.[K+] [potassium benzoate]
Conditions | molar heat capacity at constant pressure
78.05 K | 64.02 J/K/mol
79.77 K | 65.4 J/K/mol
80 K | 66.51 J/K/mol
82.44 K | 67.11 J/K/mol
85 K | 69.25 J/K/mol
85.05 K | 69.06 J/K/mol
87.58 K | 70.57 J/K/mol
90 K | 71.99 J/K/mol
90.05 K | 72.16 J/K/mol
92.46 K | 73.51 J/K/mol
94.82 K | 75.08 J/K/mol
95 K | 74.71 J/K/mol
97.13 K | 76.49 J/K/mol
99.4 K | 77.52 J/K/mol
100 K | 77.41 J/K/mol
101.6 K | 78.59 J/K/mol
103.8 K | 79.84 J/K/mol
105 K | 80.09 J/K/mol
106 K | 81.03 J/K/mol
108.1 K | 82.38 J/K/mol
110 K | 82.77 J/K/mol
110.2 K | 83.34 J/K/mol
112.2 K | 84.3 J/K/mol
114.2 K | 85.15 J/K/mol
115 K | 85.42 J/K/mol
116.3 K | 86.65 J/K/mol
118.3 K | 87.5 J/K/mol
120 K | 88.06 J/K/mol
120.4 K | 88.67 J/K/mol
123.5 K | 90.49 J/K/mol
125 K | 90.69 J/K/mol
127.5 K | 92.84 J/K/mol
130 K | 93.3 J/K/mol
131.5 K | 94.64 J/K/mol
135 K | 95.9 J/K/mol
135.4 K | 96.31 J/K/mol
139.4 K | 98.35 J/K/mol
140 K | 98.48 J/K/mol
143.3 K | 100.4 J/K/mol
145 K | 101 J/K/mol
147.2 K | 102.3 J/K/mol
150 K | 103.6 J/K/mol
151.1 K | 103.9 J/K/mol
154.9 K | 105.6 J/K/mol
155 K | 106.1 J/K/mol
158.6 K | 107.2 J/K/mol
160 K | 108.6 J/K/mol
162.3 K | 108.9 J/K/mol
165 K | 111.2 J/K/mol
166 K | 110.7 J/K/mol
169.7 K | 112.6 J/K/mol
170 K | 113.6 J/K/mol
173.3 K | 114.5 J/K/mol
175 K | 116.1 J/K/mol
176.9 K | 115.9 J/K/mol
180 K | 118.6 J/K/mol
180.4 K | 117.8 J/K/mol
185 K | 121 J/K/mol
185.2 K | 119.9 J/K/mol
190 K | 123.5 J/K/mol
190.3 K | 122.8 J/K/mol
194.3 K | 124.8 J/K/mol
195 K | 125.9 J/K/mol
198.3 K | 127 J/K/mol
200 K | 128.3 J/K/mol
202.2 K | 129 J/K/mol
205 K | 130.6 J/K/mol
206.2 K | 131.6 J/K/mol
210 K | 133 J/K/mol
210.2 K | 133.5 J/K/mol
214.1 K | 135.5 J/K/mol
215 K | 135.4 J/K/mol
218.1 K | 137.3 J/K/mol
220 K | 137.7 J/K/mol
222.1 K | 139.3 J/K/mol
225 K | 140 J/K/mol
226.1 K | 141 J/K/mol
230 K | 142.3 J/K/mol
230.1 K | 142.7 J/K/mol
234 K | 144.9 J/K/mol
235 K | 144.6 J/K/mol
237.9 K | 146.3 J/K/mol
240 K | 146.9 J/K/mol
243.1 K | 149 J/K/mol
245 K | 149.2 J/K/mol
248.2 K | 151.2 J/K/mol
250 K | 151.4 J/K/mol
252.2 K | 152.7 J/K/mol
255 K | 153.7 J/K/mol
256.1 K | 154.1 J/K/mol
260 K | 155.9 J/K/mol
260.1 K | 156.2 J/K/mol
264.1 K | 158.2 J/K/mol
265 K | 158.1 J/K/mol
268.1 K | 160.2 J/K/mol
270 K | 160.3 J/K/mol
272.1 K | 161.4 J/K/mol
275 K | 162.5 J/K/mol
276.1 K | 163.3 J/K/mol
280 K | 165.1 J/K/mol and 164.6 J/K/mol
284 K | 166.4 J/K/mol
285 K | 166.8 J/K/mol
287.9 K | 168.1 J/K/mol
290 K | 168.9 J/K/mol
291.8 K | 169.9 J/K/mol
295 K | 171 J/K/mol
295.9 K | 171.5 J/K/mol
298.15 K | 172.3 J/K/mol
299.8 K | 172.8 J/K/mol
300 K | 173.1 J/K/mol
303.7 K | 174.3 J/K/mol
305 K | 175.2 J/K/mol
307.8 K | 176.1 J/K/mol
310 K | 177.3 J/K/mol
311.7 K | 177.6 J/K/mol
315 K | 179.3 J/K/mol
315.6 K | 179.5 J/K/mol
319.5 K | 180.7 J/K/mol
320 K | 181.4 J/K/mol
323.5 K | 182.2 J/K/mol
325 K | 183.4 J/K/mol
327.4 K | 183.7 J/K/mol
330 K | 185.4 J/K/mol
331.4 K | 185.4 J/K/mol
335 K | 187.4 J/K/mol
335.5 K | 187.1 J/K/mol
339.4 K | 188.7 J/K/mol
340 K | 189.4 J/K/mol
343.5 K | 190.7 J/K/mol
345 K | 191.4 J/K/mol
346.5 K | 192.2 J/K/mol
349.5 K | 193.4 J/K/mol
350 K | 193.3 J/K/mol
353.5 K | 195 J/K/mol
355 K | 195.3 J/K/mol
357.5 K | 196.3 J/K/mol
360 K | 197.2 J/K/mol
361.4 K | 197.9 J/K/mol
365 K | 199.1 J/K/mol
365.3 K | 199.4 J/K/mol
369.2 K | 200.8 J/K/mol
370 K | 201 J/K/mol
373.3 K | 202.3 J/K/mol
375 K | 202.9 J/K/mol
377.4 K | 203.7 J/K/mol
380 K | 204.8 J/K/mol
381.4 K | 205.6 J/K/mol
385 K | 206.6 J/K/mol
385.4 K | 206.8 J/K/mol
389.4 K | 208.1 J/K/mol
390 K | 208.4 J/K/mol
393.4 K | 209.9 J/K/mol
395 K | 210.3 J/K/mol
397.3 K | 211.1 J/K/mol
